According to the supplement of paper PMC11451515:

Experiments:
Assay in all cases: AUC of viability dose-response curve (% viability x log10 dose units); higher = less sensitive
Settings in all cases: 48 h
SEM cells = test system: SEM cells
Outline: (§1)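 Leukemia cells adapted to each medium were seeded in 1536-well plates (500 or 1000 cells/well). They were dosed with library compounds in DMSO at 11 threefold doses, 47 μM to 0.79 nM, for 48 h at 37°C. CellTiter-Glo One luminescence was normalised per plate to DMSO and cell-free wells. Area under the curve was integrated by trapezoidal rule over log10 doses on a four-parameter log-logistic fit; curves exceeding full viability were scaled and curves failing quality control removed.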

P12-Ichikawa = test system: P12-Ichikawa
Outline: as §1

NOMO1 = test system: NOMO1
Outline: as §1

[1] = RPMI 5 mM glucose + 10% dialyzed FBS

Compound	AUC of viability dose-response curve (SEM cells; HPLM + 10% dialyzed FBS)	AUC of viability dose-response curve (SEM cells; RPMI 5 mM glucose + 10% FBS)	AUC of viability dose-response curve (SEM cells; [1])	AUC of viability dose-response curve (P12-Ichikawa; HPLM + 10% dialyzed FBS)	AUC of viability dose-response curve (P12-Ichikawa; RPMI 5 mM glucose + 10% FBS)	AUC of viability dose-response curve (P12-Ichikawa; [1])	AUC of viability dose-response curve (NOMO1; HPLM + 10% dialyzed FBS)	AUC of viability dose-response curve (NOMO1; RPMI 5 mM glucose + 10% FBS)	AUC of viability dose-response curve (NOMO1; [1])
CCc1cccc2c3c([nH]c12)C(CC)(CC(=O)O)OCC3 (centres undefined)	454	409	448	466	448	465	452	441	427
CCCCCCCCOc1ccccc1C(=O)Nc1ccc(C(=O)OCC[N+](C)(CC)CC)cc1	435	414	460	437	444	408	446	401	413
Cc1ccc(NC(=O)Nc2cc(C(F)(F)F)ccc2F)cc1Nc1ccc2c(c1)NC(=O)/C2=C\c1ccc[nH]1	439	440	428	466	462	454	455	460	449
CCOC(CN1C(=O)[C@](CC(=O)Nc2ccc(C)cc2)(NC(=O)Nc2ccc(C)cc2)c2ccccc21)OCC	447	437	466	458	461	460	448	460	458
Oc1cc2c(cc1O)C1c3ccc(O)c(O)c3OCC1(O)C2 (centres undefined)	430	441	447	461	449	469	456	464	459
CN1C2=CC(=O)/C(=N/NC(N)=O)C=C2CC1S(=O)(=O)[O-].[Na+] (centres undefined)	455	449	447	475	472	459	454	462	461
O=[S+]([O-])(/N=C/c1c(O)ccc2ccccc12)c1cccs1	442	428	440	464	465	468	443	472	455
Cn1cc(-c2cnn3c(N)c(Br)c([C@@H]4CCCNC4)nc23)cn1	300	344	289	358	342	339	352	322	314
CC(Cc1ccc(O)c(O)c1)(NN)C(=O)O (centres undefined)	469	466	468	448	467	465	475	453	442
CC1=CC=C2\N=C/3N(CC[C@@]3(O)C(=O)C2=C1)C4=CC=CC=C4	431	438	413	442	420	400	452	403	425
CN(CCOc1ccc(NS(C)(=O)=O)cc1)CCc1ccc(NS(C)(=O)=O)cc1	444	463	447	469	465	464	451	455	463
CO[C@@H]1[C@@H](OC(N)=O)[C@@H](O)[C@H](OC2=CC=C3\C(=C(NC(=O)C4=CC=C([O-])C(=C4)CC=C(C)C)/C(=O)OC3=C2C)O)OC1(C)C	476	445	461	449	465	464	437	451	437
C[C@H]1[C@H](O)O[C@@H]2O[C@@]3(C)CC[C@H]4[C@H](C)CC[C@@H]1[C@@]24OO3	374	348	324	386	340	333	321	316	341
Cn1c(=O)c2[nH]cnc2n(C)c1=O	474	454	477	473	463	468	464	454	457
COC1=CC(=CC=C1)C2=CC=C(NC(=O)/C3=C(/CCC3)C(O)=O)C(=C2)F	465	461	447	444	436	431	428	469	457
O=C1CCC[C@@H]2[C@H]3CCC[N+]4([O-])CCC[C@@H](CN12)[C@@H]34 (some centres undefined)	373	406	398	463	435	422	364	374	369
